Assay results: patent US20050267169A1, “Watersoluble prodrugs of propofol” (priority 2002, published 2005)
Converted amounts (≈) assume the structure as drawn. Structures can show the parent of a compound that is named as a salt. Marks after values point to notes of the source that are not given here.

What was measured:
porcine liver esterase = test: Hydrolysis in the presence of porcine liver esterase; format: in vitro ADME; settings: for half-life: pig, porcine liver esterase, read-out: Half-lives at 37° C., Porcine liver esterase (13 U/mL) (converted); for half-life / Cleaved quantitatively to the parent drug in porcine liver esterase solution: 37° C.
From the text: Hydrolysis of compounds 6a-d in the presence of porcine liver esterase was followed using a reported procedure (Bonina F P, Arenare L, Palagiano F, Saija A, Nava F, Trombetta D, De Caprariis P. 1998. Synthesis, stability, and pharmacological evaluation of nipecotic acid prodrugs. J. Pharm. Sci. 8: 561-567.).

[1] = Hydrolysis in phosphate buffer containing 50% rat serum at 37° C.; format: in vitro ADME; settings: for half-life: 50% rat serum in phosphate buffer, 50% rat serum in pH 7.4 phosphate buffer, read-out: Half-lives at 37° C., 50% rat serum (converted); for Cleaved quantitatively to the parent drug in rat serum: rat serum solution
Method: Each reaction were initiated by adding 100 μL of the methanolic stock solution of compound under examination to 1.6 mL of preheated serum solution (final concentration about 1×10^−3 M) and the mixture was maintained in water bath at 37° C. At appropriate times, 100 μL samples were withdrawn and added to 500 μL of cold acetonitrile in order to deproteinize the serum. After mixing and centrifugation (10 min at 4000 rpm), 20 μL of the clear supematant were filtered through 0.2 μm membrane filter (Waters, PTFE 0.2 μm) and analyzed by HPLC.

GABAA receptor = test: In vitro [35S]TBPS binding assay, unwashed rat cortical membranes; settings: for IC50: unwashed rat brain (cortical) membranes
Method: The data is expressed as a percentage of binding measured in the presence of solvent and are means of two experiments.
Rats were killed by decapitation and their brains rapidly removed on ice. The cerebral cortex was dissected out and homogenized in 50 volumes of ice-cold 50 mM Tris-citrate buffer (pH 7.4 at 25° C.) containing 100 mM CaCl2 using a Polytron PT 10 (setting 5, for 20 sec) and centrifuged at 20.000×g for 20 min. The resulting pellet was resuspended in 50 volumes of 50 mM Tris-citrate buffer (pH 7.4 at 25° C.) and used for the assay. [^35S]TBPS binding was determined in a final volume of 500 μL consisting of. 200 μL of tissue homogenate (0.20-0.25 mg protein), 50 μL of [^35S]TBPS (final assay concentration of 1 nM), 50 μl 2 M NaCl, 50 μL of drugs or solvent and buffer to volume. Incubations (25° C.) were initiated by addition of tissue and terminated 90 min later by a rapid filtration through glass-fiber filter strips (Whatman GF/B, Clifton, N.J.), which were rinsed twice with a 4 mL portion of ice-cold Tris-citrate buffer using a Cell Harvester filtration manifold (model M-24m Brandel, Gaithersburg, Md.). Filter bound radioactivity was quantitated by liquid scintillation spectrometry. […] Protein content was determined by the method of Lowry^20 using bovine serum albumin as a standard.

[2] = Solubility in deionized water at 25° C.; format: physicochemical; settings: 72 h equilibration; for solubility at 72 h: thermodynamic from solid, read-out: Solubility (mg/mL) in deionized water
Method: The resulting mixture was vortexed for 10 min and then mechanically shaken in a thermostatic bath shaker (100 rpm) for 72 h to attain equilibrium. Next, the mixture was filtered through a 0.45 μm membrane filter (Millipore®, cellulose acetate) and an aliquot was diluted with an appropriate amount of water and analyzed for the aminoacid ester prodrug content spectrophotometrically at 210 nm. All of the manipulations were made without removal of the test tubes from the water bath, using thermostated pipettes, syringes, and buffer solutions. In Table II, as shown below, solubility data is compared with the data previously determined for propofol derivatives 2a-c (Trapani G. Latrofa A, Franco M, Lopedota A, Maciocco E, Liso G. 1998. Water-soluble salts of amino acid esters of the anesthetic agent propofol. Int. J. Pharm. 175: 195-204.).

[3] = Chemical hydrolysis in 0.05 M phosphate buffers at 37° C.; format: physicochemical; settings: phosphate buffer, pH 7.4, 0.05 M phosphate buffer pH 7.4, 37° C.; for half-life: read-out: Half-lives at 37° C., pH 7.4 buffer (converted)
Method: The hydrolysis of the propofol esters 6a-d was studied in aqueous buffer solutions (0.05 M phosphate buffers; ionic strength of 0.5 maintained by adding a calculated amount of KCl) at pH values of 4, 6, and 7.4 and temperature of 37±0.2° C. The reactions were initiated by adding 100 μl of a stock solution of the ester (13 mg/mL methanol) to 20 mL of the buffer solution preheated at 37° C., in screw-capped test tubes (final concentration about 2.0×10^−4 M). The solutions were kept in a water bath at a constant temperature, and at appropriate intervals aliquots of 20 μL were withdrawn and analyzed by HPLC. Pseudo-first-order rate constants for the hydrolysis were determined from the slopes of linear plots of the logarithm of residual propofol ester against time.
The kinetics of hydrolysis of the derivatives 6a-d were determined in 0.05 M phosphate buffers at pHs 4.0, 6.0 and 7.4 at 37° C. as well as in rat serum solution and in the presence of porcine liver esterase.

righting reflex = test: Anesthetic activity: loss of righting reflex; format: in vivo, rat; settings: rats, i.p.; propofol and Diprivan 60 mg/kg, 6a 105 mg/kg (equimolar); mean ± s.e.m.
Method: The loss and reestablishment of righting responses, time of anesthesia induction, and sleeping time were also assessed. Rats (five per group) were treated with propofol and Diprivan®, both at a dose of 60 mg/kg, and an equimolar dose of compound 6a (105 mg/kg) and were continuously monitored for the loss of righting reflex (onset and duration). Propofol and its derivative 6a were dissolved in saline with a drop of Tween 80 per 5 mL and administered intraperitoneally in a volume of 0.3 mL per 100 g of body mass. Anesthesia induction (sleep onset) was defined as the time from drug administration to loss of righting reflex, whereas the sleeping time was the time from the loss of the righting reflex until the animals were plantigrade on all four legs. The significance of differences in behavioral data were analyzed by the ANOVA test.

[4] = system: pentylenetetrazole-induced seizures; test: Anticonvulsant activity against pentylenetetrazole-induced seizures; format: in vivo, rat; settings: for Anticonvulsant activity, No. of rats protected/tested: pentylenetetrazole 55 mg/kg i.p.
Method: The anticonvulsant activity against pentylenetetrazole-induced seizures (55 mg/kg) was measured.

[5] = biological target: T1, human α1β2γ2 GABAA receptors (Homo sapiens, UniProt P14867+P18507+P47870); test: Voltage-clamp electrophysiology in Xenopus laevis oocytes; format: cell-based; settings: GABA EC20 (2-10 μM); for Effect on GABA-evoked chloride currents: concentration-dependent
T1 construct: expressed in transfected cells; host or cells: Xenopus laevis oocytes (nuclear injection of cDNAs in pCDM8)
Method: Values are expressed as mean (6-13 different oocytes)±s.e.m. percentage of the potentiation of the control response to GABA (EC20, 2-10 μM).
Complementary DNAs encoding the human α1, β2, and γ2 GABAA receptor subunits were subcloned into the pCDM8 expression vector (Invitrogen, San Diego, Calif.). The cDNAs were purified with the Promega Wizard Plus Miniprep DNA Purification System (Madison, Wis.) and then resuspended in sterile distilled water, divided into portions, and stored at −20° C. until used for injection. Stage V and VI oocytes were manually isolated from sections of Xenopus laevis ovary, placed in modified Barth's saline (MBS) containing 88 mM NaCl, 1 mM KCl, 10 mM Hepes-NaOH buffer (pH 7.5), 0.82 mM MgSO4, 2.4 mM NaHCO3, 0.91 mM CaCl2, and 0.33 mM Ca(NO3)2 and treated with 0.5 mg/mL of collagenase Type IA (Sigma) in collagenase buffer (83 mM NaCl, 2 mM KCl, 1 mM MgCl2, 5 mM Hepes-NaOH buffer, pH 7.5) for 10 min at room temperature, to remove the follicular layer. A mixture of GABAA receptor α1, β2, and γ2 subunit cDNAs (1.5 ng/30 nL) was injected into the oocyte nucleus using a 10 μL glass micropipette (10-15 μm tip diameter). The injected oocytes were cultured at 19° C. in sterile MBS supplemented with streptomycin (10 μg/mL), penicillin (10 U/mL), gentamicin (50 μg/mL), 0.5 mM theophylline, and 2 mM sodium pyruvate. Electrophysiological recordings began approximately 24 h following cDNA injection. Oocytes were placed in a 100-μL rectangular chamber and continuously perfused with MBS solution at a flow rate of 2 mL/min at room temperature. The animal pole of oocytes was impaled with two glass electrodes (0.5 to 3 MΩ) filled with filtered 3 M KCl and the voltage was clamped at −70 mV with an Axoclamp 2-B amplifier (Axon Instruments, Burlingame, Calif.). Currents were continuously recorded on a strip-chart recorder. Resting membrane potential usually ranged from −30 to −50 mV. Drugs were perfused for 20 s (7-10 s were required to reach equilibrium in the recording chamber). Intervals of 5 to 10 min were allowed between drug applications.

[6] = unwashed rat cortical membranes
[7] = propofol 40 mg/kg i.p. or equimolar dose

T1 sequence (P14867 28-456): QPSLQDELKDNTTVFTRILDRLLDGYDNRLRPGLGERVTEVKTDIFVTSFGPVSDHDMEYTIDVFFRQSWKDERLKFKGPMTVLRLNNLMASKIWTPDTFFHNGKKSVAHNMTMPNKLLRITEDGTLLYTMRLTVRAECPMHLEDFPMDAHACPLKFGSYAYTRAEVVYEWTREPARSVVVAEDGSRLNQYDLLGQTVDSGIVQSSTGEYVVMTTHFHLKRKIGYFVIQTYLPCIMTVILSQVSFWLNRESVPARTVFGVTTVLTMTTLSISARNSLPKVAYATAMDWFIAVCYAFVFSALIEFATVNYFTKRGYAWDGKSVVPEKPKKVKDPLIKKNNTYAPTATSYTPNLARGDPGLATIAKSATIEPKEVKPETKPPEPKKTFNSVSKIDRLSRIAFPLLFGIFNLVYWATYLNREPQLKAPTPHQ
T1 sequence (P47870 25-512 limits assumed): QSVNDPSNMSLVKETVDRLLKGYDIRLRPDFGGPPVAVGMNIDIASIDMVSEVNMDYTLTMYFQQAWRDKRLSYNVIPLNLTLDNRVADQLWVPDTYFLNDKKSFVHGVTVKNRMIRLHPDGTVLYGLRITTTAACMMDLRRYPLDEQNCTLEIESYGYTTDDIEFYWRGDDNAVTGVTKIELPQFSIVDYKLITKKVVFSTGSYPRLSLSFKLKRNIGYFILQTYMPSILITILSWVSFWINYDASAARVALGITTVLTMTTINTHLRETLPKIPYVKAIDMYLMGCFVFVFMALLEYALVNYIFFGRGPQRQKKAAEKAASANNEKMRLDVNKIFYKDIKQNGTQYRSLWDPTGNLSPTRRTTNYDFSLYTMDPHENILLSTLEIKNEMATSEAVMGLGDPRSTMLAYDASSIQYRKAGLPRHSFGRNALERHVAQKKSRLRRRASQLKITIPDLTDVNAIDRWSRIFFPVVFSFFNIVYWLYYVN
T1 sequence (P18507 40-475): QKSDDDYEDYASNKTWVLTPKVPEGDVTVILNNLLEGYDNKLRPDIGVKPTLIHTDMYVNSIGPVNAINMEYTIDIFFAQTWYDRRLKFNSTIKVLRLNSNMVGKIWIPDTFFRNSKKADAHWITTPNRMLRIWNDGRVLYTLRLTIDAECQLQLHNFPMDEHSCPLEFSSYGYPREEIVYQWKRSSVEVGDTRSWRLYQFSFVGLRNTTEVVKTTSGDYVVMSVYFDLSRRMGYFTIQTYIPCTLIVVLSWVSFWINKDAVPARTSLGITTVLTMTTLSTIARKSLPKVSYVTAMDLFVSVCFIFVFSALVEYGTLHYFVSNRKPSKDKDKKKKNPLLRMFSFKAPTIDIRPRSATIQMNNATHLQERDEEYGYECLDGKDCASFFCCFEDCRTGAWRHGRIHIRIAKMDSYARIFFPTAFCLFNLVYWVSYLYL

Q: For `CC(C)c1cccc(C(C)C)c1OC(=O)C1CCCCN1` (racemic) [Compound 6b, propofol pipecolinate], which half-life (porcine liver esterase; 13 U/mL) is on record?
A: 0.217 h

Q: And the “Cleaved quantitatively to the parent drug in porcine liver esterase solution” value (porcine liver esterase)?
A: cleaved quantitatively

Q: And the half-life [1]?
A: 0.0417 h

Q: And the “Cleaved quantitatively to the parent drug in rat serum” value (“Cleaved quantitatively … in rat serum” for short) [1]?
A: cleaved quantitatively

Q: What about the IC50 (GABAA receptor) of the same compound?
A: 39.5 µM

Q: What about the solubility at 72 h [2] of the same compound?
A: 13.4 mg/mL (≈ 46.3 mM)

Q: What about the half-life [3] of the same compound?
A: 7 h

Q: With `CC(C)c1cccc(C(C)C)c1OC(=O)C1CCCNC1` (racemic) [Compound 6c] as the compound, how does the half-life (porcine liver esterase; 13 U/mL) read?
A: 3 h

Q: What about the “Cleaved quantitatively to the parent drug in porcine liver esterase solution” value (porcine liver esterase) of the same compound?
A: not

Q: And the half-life [1]?
A: 6 h

Q: And the “Cleaved quantitatively … in rat serum” value [1]?
A: not

Q: What about the IC50 (GABAA receptor) of the same compound?
A: 152 µM

Q: What about the “Doses at which [35S]TBPS binding is reduced” value (GABAA receptor; [6]) of the same compound?
A: higher than 100 μM

Q: What about the solubility at 72 h [2] of the same compound?
A: 525 mg/mL (≈ 1810 mM)

Q: What about the half-life at 48 h ([3]; read-out: Half-lives at 37° C., pH 7.4 buffer (stability class)) of the same compound?
A: > 48 h

Q: With `CC(C)c1cccc(C(C)C)c1OC(=O)[C@@H]1CCCN1` [Compound 6a, 2.6-diisopropylphenyl pirrolidin-2-carboxylate hydrochloride] as the compound, how does the half-life (porcine liver esterase; 13 U/mL) read?
A: 0.283 h

Q: What about the “Cleaved quantitatively to the parent drug in porcine liver esterase solution” value (porcine liver esterase) of the same compound?
A: cleaved quantitatively

Q: And the half-life [1]?
A: 0.283 h

Q: What about the “Cleaved quantitatively … in rat serum” value [1] of the same compound?
A: cleaved quantitatively

Q: And the IC50 (GABAA receptor; hydrochloride)?
A: 31.7 µM

Q: And the “Loss of righting reflex, LRR, Duration” value (righting reflex)?
A: 2403 ± 592 s

Q: What about the “Loss of righting reflex, LRR, Onset” value (righting reflex) of the same compound?
A: 162.7 ± 4.3^c,d sec

Q: And the “Anticonvulsant activity, No. of rats protected/tested” value [4, 7]?
A: 10/10

Q: What about the “Protection of animals against pentylenetetrazole-induced convulsions” value [4, 7] of the same compound?
A: protected completely

Q: And the “Concentration of maximal effect on GABA-evoked chloride currents” value [5]?
A: 50 µM

Q: And the “Effect on GABA-evoked chloride currents” value [5]?
A: enhanced

Q: What about the solubility at 72 h [2] of the same compound?
A: 350 mg/mL

Q: And the half-life [3]?
A: 6 h

Q: Which “Half-lives at 37° C., Porcine liver esterase (13 U/mL)” value (porcine liver esterase; 13 U/mL) does the source give for `CC(C)c1cccc(C(C)C)c1OC(=O)C1CCNCC1` [Compound 6d, propofol isonipecotate] here?
A: 45 h

Q: And the “Cleaved quantitatively to the parent drug in porcine liver esterase solution” value (porcine liver esterase)?
A: not

Q: What about the “Effect on [35S]TBPS binding” value (GABAA receptor; [6]) of the same compound?
A: increase of [^35S]TBPS binding

Q: What about the “Protection of animals against pentylenetetrazole-induced convulsions” value ([4]; dose equimolar to 40 mg/kg propofol, i.p.) of the same compound?
A: 60%

Q: And the “Anticonvulsant activity, No. of rats protected/tested” value [4, 7]?
A: 6/10

Q: What about the “Concentration of maximal effect on GABA-evoked chloride currents” value [5] of the same compound?
A: 100 µM

Q: And the “Effect on GABA-evoked chloride currents” value [5]?
A: diminished

Q: What about the “Solubility (mg/mL) in deionized water” value [2] of the same compound?
A: 29.7 mg/mL (≈ 103 mM)

Q: What does the source list for `CC(C)c1cccc(C(C)C)c1O` [Compound 1, 2,6-diisopropylphenol, reference compound]?
A: IC50 (GABAA receptor): 4.17 µM; Loss of righting reflex, LRR, Duration (righting reflex): 2245 ± 252 s; Loss of righting reflex, LRR, Onset (righting reflex): 114.4 ± 9.5 s; Anticonvulsant activity, No. of rats protected/tested [4, 7]: 10/10; Protection of animals against pentylenetetrazole-induced convulsions [4, 7]: protected completely; solubility at 72 h [2]: ~0.15 mg/mL (≈ 0.841 mM)
